Measurements taken from US20170333532A1, “ADP'ASE-ENHANCED APYRASE THERAPY FOR WOUNDS, MICROBIAL INFECTION, SEPSIS, AND HETEROTOPIC OSSIFICATION” (APT THERAPEUTICS, INC, priority 2014, published 2017).

How the values were obtained:
[1] = test system: A. baumannii strain DMCI; test: Killing of A. baumannii DMCI by colistin with Apyrase Agent, CFU count; assay type: cell-based; conditions: about 10^6 CFU/ml inoculum; Apyrase Agent 1 and 2 U/ml with colistin, or colistin alone at the same concentrations (4-32 μg/ml)
Description: (§1) In this Example (and in subsequent Examples), the colistin is colistin sulfate salt, catalog number C4461 from Sigma-Aldrich (St. Louis, Mo.) and the apyrase is catalog number M0393L from New England BioLabs Inc. (Ipswich, Mass.).
Approximately 10^6 CFU/ml of A. baumannii strain DMCI is grown on solid medium culture plates in the presence of combinations of 0, 1, and 2 U/ml of Apyrase Agent and 0, 4, 8, 16, and 32 μg/ml of colistin. After incubation, the numbers of viable cells are determined by counting the colony forming units (CFU) on the plate (data provided as CFU/ml).

[2] = test system: A. baumannii strain AC285; test: Killing of colistin-resistant A. baumannii AC285 by colistin with Apyrase Agent, CFU count; assay type: cell-based; conditions: colistin at less than 5-10 μg/ml, with Apyrase Agent 2 U/ml or alone
Description: as §1
Approximately 10^5 to 10^6 CFU/ml of the colistin-resistant A. baumannii strain AC285 is grown in the presence of combinations of 0 and 2 U/ml of Apyrase Agent and approximately 0 to 32 μg/ml of colistin. After incubation, the numbers of viable cells are determined by counting the colony forming units (CFU) on the plate (data provided as CFU/ml). Apyrase Agent improves the efficiency of killing A. baumannii strain AC285 by colistin. Apyrase Agent increases the effectiveness of colistin at less than 5-10 μg/ml such that less than 10 to 100 CFU/ml are detected relative to greater than 10^7 to 10^8 in the presence of colistin alone at the same concentrations.

[3] = test system: P. aeruginosa strain AU7443, mucoid; test: Killing of P. aeruginosa AU7443, mucoid by colistin with Apyrase Agent, CFU count; assay type: cell-based; conditions: colistin at less than 20 μg/ml, with Apyrase Agent 2 U/ml or alone
Description: as §1
(§2) P. aeruginosa strain AU7443, mucoid is grown in the presence of combinations of 0 and 2 U/ml of Apyrase Agent and approximately 0 to 20 μg/ml of colistin. After incubation, the numbers of viable cells are determined by counting the colony forming units (CFU) on the plate (data provided as CFU/ml). Apyrase Agent improves the efficiency of killing P. aeruginosa strain AU7443, mucoid by colistin. Apyrase Agent increases the effectiveness of colistin at less than 20 μg/ml such that less than 10 to 100 CFU/ml are detected relative to greater than 10^4 to 10^5 in the presence of colistin alone at the same concentrations.

[4] = test system: Burkholderia cepacia AU1114; test: Killing of Burkholderia cepacia AU1114 by colistin with Apyrase Agent, CFU count; assay type: cell-based; conditions: colistin at less than 20 μg/ml, with Apyrase Agent 2 U/ml or alone
Description: as §1
as §2, with “Burkholderia cepacia AU1114” for “P. aeruginosa strain AU7443, mucoid”, “10^5” for “10^4”, “10^6” for “10^5”

[5] = test system: Burkholderia cepacia GUIa AU0019; test: Killing of Burkholderia cepacia GUIa AU0019 by colistin with Apyrase Agent, CFU count; assay type: cell-based; conditions: colistin at less than 10 μg/ml, with Apyrase Agent 2 U/ml or alone
Description: as §1
as §2, with “Burkholderia cepacia GUIa AU0019 is” for “P. aeruginosa strain AU7443, mucoid is”, “killing Burkholderia cepacia GUIa AU0019” for “killing P. aeruginosa strain AU7443, mucoid”, “than 10” for “than 20”, “than 10^5” for “than 10^4”, “to 10^6” for “to 10^5”

[6] = test system: Burkholderia cepacia GIIIb AU0062; test: Killing of Burkholderia cepacia GIIIb AU0062 by colistin with Apyrase Agent, CFU count; assay type: cell-based; conditions: colistin at less than 20 μg/ml, with Apyrase Agent 2 U/ml or alone
Description: as §1
as §2, with “Burkholderia cepacia GIIIb AU0062” for “P. aeruginosa strain AU7443, mucoid”

[7] = test system: Burkholderia ambifaria AU5203; test: Killing of Burkholderia ambifaria AU5203 by colistin with Apyrase Agent, CFU count; assay type: cell-based; conditions: colistin at less than 20 μg/ml, with Apyrase Agent 2 U/ml or alone
Description: as §1
as §2, with “Burkholderia ambifaria AU5203” for “P. aeruginosa strain AU7443, mucoid”, “10^5” for “10^4”, “10^6” for “10^5”

[8] = test system: Burkholderia dolosa AU0589; test: Killing of Burkholderia dolosa AU0589 by colistin with Apyrase Agent, CFU count; assay type: cell-based; conditions: colistin at less than 20 μg/ml, with Apyrase Agent 2 U/ml or alone
Description: as §1
as §2, with “Burkholderia dolosa AU0589” for “P. aeruginosa strain AU7443, mucoid”, “10^6” for “10^4”, “10^7” for “10^5”

[9] = test system: A. baumannii ATCC DMCI; test: Mouse model for wound infection and healing (burn), A. baumannii ATCC DMCI, treatment 24 hours after inoculation; assay type: in vivo; conditions: wounds treated 24 hours after inoculation, skin collected 48 hours after the burn
Description: e.g., in a mouse model for wound infection and healing. After a burn, A. baumannii ATCC DMCI is inoculated on skin. After 24 hours, the wounds are treated with Apyrase Agent alone, colistin alone, or Apyrase Agent and colistin in combination. Skin samples are collected after another 24 hours and the CFU/g skin of A baumannii ATCC DMCI is determined. […] In the presence of Apyrase Agent or colistin alone, A. baumannii is detected at amounts of approximately 10^8 CFU/g of skin.

colistin sulfate salt
viable cell count [1]: approximately 10^7 CFU/ml
numbers of viable cells (CFU) [2]: 10^7 to 10^8 CFU/ml
numbers of viable cells (CFU) [3]: 10^4 to 10^5 CFU/ml
numbers of viable cells (CFU) [4]: 10^5 to 10^6 CFU/ml
numbers of viable cells (CFU) [5]: 10^5 to 10^6 CFU/ml
numbers of viable cells (CFU) [6]: 10^4 to 10^5 CFU/ml
numbers of viable cells (CFU) [7]: 10^5 to 10^6 CFU/ml
numbers of viable cells (CFU) [8]: 10^6 to 10^7 CFU/ml
A. baumannii detected on skin [9]: approximately 10^8 CFU/g of skin
